These molecules were tested against T1, human AhR (Homo sapiens, UniProt P35869) (assay: INDIGO AhR Reporter Assay (luciferase reporter cells, antagonist mode)). Details: antagonist mode with 50 nM of VAF347 (AhR agonist); 22-24 hours incubation; luciferase RLU.
T1 construct: INDIGO's Aryl Hydrocarbon Receptor (AhR) Reporter Cells include the luciferase reporter gene functionally linked to an AhR-responsive promoter
T1 sequence (P35869 11-848): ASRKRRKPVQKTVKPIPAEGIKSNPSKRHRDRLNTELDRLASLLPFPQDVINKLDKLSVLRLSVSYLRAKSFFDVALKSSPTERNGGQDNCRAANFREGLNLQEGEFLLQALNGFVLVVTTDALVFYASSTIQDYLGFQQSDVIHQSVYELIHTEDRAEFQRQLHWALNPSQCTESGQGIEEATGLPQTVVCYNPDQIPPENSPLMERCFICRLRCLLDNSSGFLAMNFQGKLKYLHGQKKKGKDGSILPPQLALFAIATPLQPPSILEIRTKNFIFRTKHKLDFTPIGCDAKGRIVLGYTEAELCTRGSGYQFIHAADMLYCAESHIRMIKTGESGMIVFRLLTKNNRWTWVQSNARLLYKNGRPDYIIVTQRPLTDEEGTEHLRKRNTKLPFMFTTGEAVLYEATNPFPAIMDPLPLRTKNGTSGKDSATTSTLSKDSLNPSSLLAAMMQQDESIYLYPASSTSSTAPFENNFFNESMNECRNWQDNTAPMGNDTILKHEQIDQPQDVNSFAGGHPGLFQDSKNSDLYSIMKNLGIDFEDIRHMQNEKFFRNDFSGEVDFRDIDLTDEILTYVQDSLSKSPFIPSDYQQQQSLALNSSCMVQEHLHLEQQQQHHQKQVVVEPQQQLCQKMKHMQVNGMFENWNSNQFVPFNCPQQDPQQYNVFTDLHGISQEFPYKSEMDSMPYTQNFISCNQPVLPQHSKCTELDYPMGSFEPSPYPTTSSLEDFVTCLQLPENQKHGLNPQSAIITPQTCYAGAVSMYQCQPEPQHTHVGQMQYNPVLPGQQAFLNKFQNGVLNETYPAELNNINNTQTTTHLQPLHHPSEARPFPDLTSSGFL
Type: cell-based
From the text: INDIGO's Aryl Hydrocarbon Receptor (AhR) Reporter Cells include the luciferase reporter gene functionally linked to an AhR-responsive promoter. Thus, quantifying changes in luciferase expression in the treated reporter cells provides a sensitive surrogate measure of the changes in AhR activity. The principle application of this reporter assay is in the screening of test samples to quantify any functional activity, either agonist or antagonist, that they may exert against human AhR. Reporter Cells incorporate the cDNA encoding beetle luciferase, a 62 kD protein originating from the North American firefly (Photinus pyralis). Luciferase catalyzes the mono-oxidation of D-luciferin in a Mg^2+-dependent reaction that consumes 02 and ATP as co-substrates, and yields as products oxyluciferin, AMP, PPi, CO2, and photon emission. Luminescence intensity of the reaction is quantified using a luminometer, and is reported in terms of Relative Light Units (RLU's). In brief, 200 μl of Reporter Cells was dispensed into wells of the assay plate and pre-incubated for 4-6 hours. Following the pre-incubation period, culture media were discarded and 200 µl/well of the prepared 1×-concentration treatment media were added. Following 22-24 hours of incubation, treatment media were discarded and Luciferase Detection Reagent was added. The intensity of light emission (in units of “Relative Light Units” (RLU)) from each assay well was quantified using a plate-reading luminometer. The assay was run as a competitive binding assay in the antagonist mode with 50 nM of VAF347, a known AhR agonist.
In Table 4, IC50 values are reported as A, B, C, or D. A represents an IC50 value of less than 100 nM. B represents an IC50 value of equal or greater than 100 nM and less than 500 nM. C represents an IC50 value of equal or greater than 500 nM and less than 1 μM. D represents an IC50 value of equal or greater than 1 μM.

IC50 [µM]	Structure (SMILES)
0.1 to 0.5	Cc1ccccc1/N=N/c1ccc(NC(=O)c2ccnn2C)c(C)c1 [CH223191, reference compound]
0.1 to 0.5	Cn1nc(C(C)(C)C)cc1NC(=O)c1cc2ncccc2cc1Cl [Compound 19, N-(3-tert-Butyl-1-methyl-1H-pyrazol-5-yl)-6-chloroquinoline-7-carboxamide]
< 0.1	Cn1nc(C(F)(F)F)cc1NC(=O)c1cc2ncccc2cc1Cl [Compound 27, 6-Chloro-N-[1-methyl-3-(trifluoromethyl)-1H-pyrazol-5-yl]quinoline-7-carboxamide]
0.1 to 0.5	Cn1nc(-c2ccccc2F)cc1NC(=O)c1cc2ncccc2cc1Cl [Compound 29, 6-Chloro-N-[3-(2-fluorophenyl)-1-methyl-1H-pyrazol-5-yl]quinoline-7-carboxamide]
< 0.1	Cc1ccccc1-c1cc(NC(=O)c2cc3ncccc3cc2Cl)n(C)n1 [Compound 31, 6-Chloro-N-[1-methyl-3-(2-methylphenyl)-1H-pyrazol-5-yl]quinoline-7-carboxamide]
0.5 to 1	CCN(CC)S(=O)(=O)c1cc(NC(=O)c2cc3ncccc3cc2Cl)ccc1F [Compound 33, 6-Chloro-N-(3-(N,N-diethylsulfamoyl)-4-fluorophenyl)quinoline-7-carboxamide]
0.1 to 0.5	CCN(CC)S(=O)(=O)c1cc(NC(=O)c2cc3ncccc3cc2Cl)ccc1Cl [Compound 34, 6-Chloro-N-(4-chloro-3-(N,N-diethylsulfamoyl)phenyl)quinoline-7-carboxamide]
< 0.1	Cn1nc(C(F)(F)F)cc1NC(=O)c1ccc2cc(-c3ccccc3)cnc2c1 [Compound 40, N-[1-Methyl-3-(trifluoromethyl)-1H-pyrazol-5-yl]-3-phenylquinoline-7-carboxamide]
0.1 to 0.5	Cn1nc(-c2ccccc2C(F)(F)F)cc1NC(=O)c1cc2ncccc2cc1Cl [Compound 44, 6-Chloro-N-(1-methyl-3-(2-(trifluoromethyl)phenyl)-1H-pyrazol-5-yl)quinoline-7-carboxamide]
0.1 to 0.5	Cn1nc(-c2cccc(C(F)(F)F)c2)cc1NC(=O)c1cc2ncccc2cc1Cl [Compound 48, 6-Chloro-N-{1-methyl-3-[3-(trifluoromethyl)phenyl]-1H-pyrazol-5-yl}quinoline-7-carboxamide]
< 0.1	Cc1ccc(F)cc1-c1cc(NC(=O)c2cc3ncccc3cc2Cl)n(C)n1 [Compound 50, 6-Chloro-N-[3-(5-fluoro-2-methylphenyl)-1-methyl-1H-pyrazol-5-yl]quinoline-7-carboxamide]
< 0.1	Cc1ccc(Cl)cc1-c1cc(NC(=O)c2cc3ncccc3cc2Cl)n(C)n1 [Compound 51, 6-Chloro-N-[3-(5-chloro-2-methylphenyl)-1-methyl-1H-pyrazol-5-yl]quinoline-7-carboxamide]
0.1 to 0.5	Cc1ccccc1-c1cnc2cc(C(=O)Nc3cc(C(F)(F)F)nn3C)ccc2c1 [Compound 52, N-[1-methyl-3-(trifluoromethyl)-1H-pyrazol-5-yl]-3-(2-methylphenyl) quinoline-7-carboxamide]
0.5 to 1	Cn1nc(C(F)(F)F)cc1NC(=O)c1ccc2cc(-c3ccccc3C(F)(F)F)cnc2c1 [Compound 53, N-[1-methyl-3-(trifluoromethyl)-1H-pyrazol-5-yl]-3-[2-(trifluoromethyl)phenyl]quinoline-7-carboxamide]
< 0.1	Cn1nc(C(F)(F)F)cc1NC(=O)c1ccc2cc(-c3ccccc3F)cnc2c1 [Compound 54, 3-(2-Fluorophenyl)-N-[1-methyl-3-(trifluoromethyl)-1H-pyrazol-5-yl]quinoline-7-carboxamide]
> 1	Cn1nc(C(F)(F)F)cc1NC(=O)c1ccc2cc(-c3cccc(C(F)(F)F)c3)cnc2c1 [Compound 55, N-[1-Methyl-3-(trifluoromethyl)-1H-pyrazol-5-yl]-3-[3-(trifluoromethyl)phenyl]quinoline-7-carboxamide]
0.1 to 0.5	Cc1cc(F)ccc1-c1cc(NC(=O)c2cc3ncccc3cc2Cl)n(C)n1 [Compound 57, 6-Chloro-N-(3-(4-fluoro-2-methylphenyl)-1-methyl-1H-pyrazol-5-yl) quinoline-7-carboxamide]
0.1 to 0.5	Cc1cc(Cl)ccc1-c1cc(NC(=O)c2cc3ncccc3cc2Cl)n(C)n1 [Compound 58, 6-Chloro-N-(3-(4-chloro-2-methylphenyl)-1-methyl-1H-pyrazol-5-yl)quinoline-7-carboxamide]
0.1 to 0.5	Cc1ccc(C(F)(F)F)cc1-c1cc(NC(=O)c2cc3ncccc3cc2Cl)n(C)n1 [Compound 59]
> 1	Cn1nc(C(F)(F)F)cc1NC(=O)c1ccc2cc(-c3cccc(F)c3)cnc2c1 [Compound 60, 3-(3-Fluorophenyl)-N-[1-methyl-3-(trifluoromethyl)-1H-pyrazol-5-yl]quinoline-7-carboxamide]
< 0.1	Cn1nc(C(F)(F)F)cc1NC(=O)c1ccc2cc(-c3ccc(F)cc3)cnc2c1 [Compound 61, 3-(4-Fluorophenyl)-N-[1-methyl-3-(trifluoromethyl)-1H-pyrazol-5-yl]quinoline-7-carboxamide]
0.1 to 0.5	Cc1ccc(-c2cnc3cc(C(=O)Nc4cc(C(F)(F)F)nn4C)ccc3c2)cc1 [Compound 62, N-[1-Methyl-3-(trifluoromethyl)-1H-pyrazol-5-yl]-3-(4-methylphenyl) quinoline-7-carboxamide]
> 1	CCN1CCN(c2ccc(NC(=O)c3ccc4cc(-c5ccccc5)cnc4c3)cc2F)CC1 [Compound 64, N-[4-(4-ethylpiperazin-1-yl)-3-fluorophenyl]-3-phenylquinoline-7-carboxamide]
> 1	Cn1nc(C(F)(F)F)cc1NC(=O)c1ccc2cc(-c3cccc(Cl)c3)cnc2c1 [Compound 65, 3-(3-chlorophenyl)-N-[1-methyl-3-(trifluoromethyl)-1H-pyrazol-5-yl]quinoline-7-carboxamide]
0.1 to 0.5	Cn1nc(C(F)(F)F)cc1NC(=O)c1ccc2cc(-c3ccccc3Cl)cnc2c1 [Compound 66, 3-(2-Chlorophenyl)-N-[1-methyl-3-(trifluoromethyl)-1H-pyrazol-5-yl]quinoline-7-carboxamide]
< 0.1	Cn1nc(C(F)(F)F)cc1NC(=O)c1ccc2cc(-c3ccsc3)cnc2c1 [Compound 67, N-[1-Methyl-3-(trifluoromethyl)-1H-pyrazol-5-yl]-3-(thiophen-3-yl)quinoline-7-carboxamide]
< 0.1	Cn1nc(C(F)(F)F)cc1NC(=O)c1ccc2cc(-c3cccs3)cnc2c1 [Compound 73, N-[1-Methyl-3-(trifluoromethyl)-1H-pyrazol-5-yl]-3-(thiophen-2-yl)quinoline-7-carboxamide]
0.1 to 0.5	Cn1nc(C(C)(C)C)cc1NC(=O)c1ccc2cc(-c3ccc(F)cc3)cnc2c1 [Compound 74, 3-(4-Fluorophenyl)-N-[1-methyl-3-(tert-butyl)-1H-pyrazol-5-yl]quinoline-7-carboxamide]
< 0.1	Cn1nc(C(F)(F)F)cc1NC(=O)c1ccc2cc(-c3ccc(F)cc3F)cnc2c1 [Compound 75, 3-(2,4-Difluorophenyl)-N-[1-methyl-3-(trifluoromethyl)-1H-pyrazol-5-yl]quinoline-7-carboxamide]
> 1	Cn1nccc1NC(=O)c1ccc2c(Oc3ccccc3)ccnc2c1 [Compound 76, N-(1-Methyl-1H-pyrazol-5-yl)-4-phenoxyquinoline-7-carboxamide]

Reference: patent US12312337B2, “Compounds and methods for treating cancer” (ANTIDOTE IP HOLDINGS, LLC, priority 2019, dated 2025)
